Data published in the supplement of paper PMC10011410.

Tests used:
U-2 OS [1] = experiment: relative cell count vs DMSO (cell painting) (fraction of DMSO control); higher = more cells remaining (less cytotoxic); settings: 24 h
Protocol: (§1)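 Cell painting in U-2 OS cells (384-well, about 1,500 cells per well), compound exposure 24 h, usually six 2-fold concentrations from 20 to 0.625 uM (some compounds higher or lower). Relative cell count is the cell number per well relative to DMSO wells. Activity score is the Mahalanobis distance of the morphological profile from DMSO control wells. Mean of four technical replicate plates.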

U-2 OS [2] = experiment: AUC of culture confluence over time (live-cell imaging) (AUC (confluence % x time)); higher = more confluent culture (less growth inhibition)
Protocol: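 Live-cell Incucyte imaging of U-2 OS cells in F-12K medium. Compounds were tested mostly at 5, 10 and 20 uM, and cells were imaged every 4 h for up to 60 h. Value is the area under the curve of phase-contrast confluence over time.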

U-2 OS [3] = experiment: cell painting activity score (Mahalanobis distance from DMSO wells); higher = stronger morphological phenotype; settings: 24 h
Protocol: as §1

| SMILES | relative cell count (U-2 OS [1]; 0.625 µM) | relative cell count (U-2 OS [1]; 1.25 µM) | relative cell count (U-2 OS [1]; 2.5 µM) | relative cell count (U-2 OS [1]; 5 µM) | relative cell count (U-2 OS [1]; 10 µM) | relative cell count (U-2 OS [1]; 20 µM) | AUC of culture confluence over time (U-2 OS [2]; 5 µM) | AUC of culture confluence over time (U-2 OS [2]; 10 µM) | AUC of culture confluence over time (U-2 OS [2]; 20 µM) | cell painting activity score (U-2 OS [3]; 0.625 µM) | cell painting activity score (U-2 OS [3]; 1.25 µM) | cell painting activity score (U-2 OS [3]; 2.5 µM) | cell painting activity score (U-2 OS [3]; 5 µM) | cell painting activity score (U-2 OS [3]; 10 µM) | cell painting activity score (U-2 OS [3]; 20 µM) |
| --- | --- | --- | --- | --- | --- | --- | --- | --- | --- | --- | --- | --- | --- | --- | --- |
| CCC(=O)CCCCC[C@@H]1NC(=O)[C@H]2CCCCN2C(=O)[C@H]([C@@H](C)CC)NC(=O)[C@H](Cc2cn(OC)c3ccccc23)NC1=O | 0.946 | 0.821 | 0.617 | 0.59 | 0.617 | 0.553 | 22.3 | 21.7 | 19.6 | 16.3 | 16 | 16.4 | 16 | 13.2 | 13.1 |
| C[C@@H]1Cc2c(Cl)cc(C(=O)N[C@@H](Cc3ccccc3)C(=O)O)c(O)c2C(=O)O1 | 1 | 0.998 | 0.979 | 0.954 | 0.805 | 0.503 | 40.8 | 30.3 | 17.7 | 3.03 | 4 | 4.76 | 5.78 | 10.6 | 16.6 |
| C=C1[C@@H](C)[C@H]2[C@H](Cc3ccccc3)NC(=O)[C@]23OC(=O)/C=C/[C@H](O)CCC[C@@H](C)C/C=C/[C@H]3[C@@H]1O | 0.968 | 0.954 | 0.865 | 0.715 | 0.722 | 0.667 | 29 | 26.1 | 26.1 | 9.61 | 11.2 | 9.71 | 10.7 | 12 | 16.1 |
| O=C(CBr)N1CC([N+](=O)[O-])([N+](=O)[O-])C1 | 0.992 | 1.02 | 0.919 | 0.891 | 0.972 | 0.873 | 50 | 49.9 | 42.4 | 6.87 | 7.38 | 11.3 | 10.6 | 11.8 | 11.3 |
| CN1CCN(CCOc2cc(OC3CCOCC3)c3c(Nc4c(Cl)ccc5c4OCO5)ncnc3c2)CC1 | 0.997 | 0.953 | 0.993 | 0.997 | 0.991 | 0.933 | 39.5 | 33.5 | 34.5 | 8.87 | 8.9 | 9.68 | 9.8 | 10.5 | 11.3 |
| O=C(OC[C@H]1O[C@@H](OC(=O)c2cc(O)c(O)c(OC(=O)c3cc(O)c(O)c(O)c3)c2)[C@H](OC(=O)c2cc(O)c(O)c(OC(=O)c3cc(O)c(O)c(O)c3)c2)[C@@H](OC(=O)c2cc(O)c(O)c(OC(=O)c3cc(O)c(O)c(O)c3)c2)[C@@H]1OC(=O)c1cc(O)c(O)c(OC(=O)c2cc(O)c(O)c(O)c2)c1)c1cc(O)c(O)c(OC(=O)c2cc(O)c(O)c(O)c2)c1 | 1.02 | 1.02 | 1.02 | 0.945 | 0.945 | 0.697 | 48.2 | 48.5 | 27.9 | 4.17 | 4.59 | 6.15 | 5.91 | 6.39 | 8.09 |
| O=C1c2ccccc2[Se](=O)N1c1ccccc1 (stereo not given) | 0.985 | 0.943 | 0.991 | 0.954 | 0.805 | 0.111 | 31.5 | 18.8 | 18.2 | 5.57 | 10.4 | 15.8 | 17 | 15.8 | 13.8 |
| Cc1ccc(C(=O)N(CCCN)[C@@H](c2nc3cc(Cl)ccc3c(=O)n2Cc2ccccc2)C(C)C)cc1 | 0.22 | 0.209 | 0.227 | 0.225 | 0.0173 | 0.0529 | 18.6 | 21.1 | 9.6 | 11.9 | 10.6 | 13.1 | 13.9 | 28.6 | 17.6 |
| Cc1csc(=NC2CCCCC2)n1/N=C/c1ccc(O)c(O)c1O | 1.01 | 1.01 | 0.985 | 1 | 1.02 | 0.405 | 49.7 | 53.9 | 40.5 | 6.78 | 7.67 | 6 | 5.67 | 5.75 | 7.13 |
